Measured values published in US6632621B1, “G protein-coupled receptor-like receptors and modulators thereof” (priority 1999, dated 2003).
Like-named read-outs stand apart in the source and are kept apart here. Where a SMILES comes first, the peptide text is derived from it. Where no end group is shown, it is not given here. [ ]: non-standard residue; d: D form. Tyr(3-I) = N[C@@H](Cc1ccc(O)c(I)c1)C(=O)O; pGlu = O=C1CC[C@@H](C(=O)O)N1

Experiments:
Assay type in all cases: biochemical, C. elegans
CEGPCR5 = target: T1, CEGPCR5 (Caenorhabditis elegans, UniProt Q18179); experiment: [35S]GTPγS binding assay, CEGPCR5 expressed in CHO cells
T1 sequence (Q18179 1-402): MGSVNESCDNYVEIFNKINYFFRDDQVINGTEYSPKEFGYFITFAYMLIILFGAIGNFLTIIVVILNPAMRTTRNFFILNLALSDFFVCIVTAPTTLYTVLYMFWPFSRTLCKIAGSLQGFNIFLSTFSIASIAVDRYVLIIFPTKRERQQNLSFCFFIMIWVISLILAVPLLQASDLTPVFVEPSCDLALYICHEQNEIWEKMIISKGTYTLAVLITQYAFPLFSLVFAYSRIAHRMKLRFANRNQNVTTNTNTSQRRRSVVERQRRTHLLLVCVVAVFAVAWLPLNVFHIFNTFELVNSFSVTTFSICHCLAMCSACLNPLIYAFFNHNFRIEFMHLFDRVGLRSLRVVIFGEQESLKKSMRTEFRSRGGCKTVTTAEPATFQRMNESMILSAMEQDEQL
Protocol: (§1) Recombinant pCR3.1 clones encoding invertebrate GPCR-like receptors were transformed into wild-type CHO-K1 cells and functional expression was achieved using a temperature-shift incubation protocol. The CHO-K1 cells were cultured at 37° C. in a humidified atmosphere of 5% CO2 in air in DMEM medium supplemented with 10% heat-inactivated fetal bovine serum (i.e., FBS), 10 μg/ml gentamicin, and 0.1 mM nonessential amino acids to give complete DMEM medium. Additionally, for incubations at temperatures lower than 37° C., the medium was fortified with 10 mM HEPES (pH 7.4). Cells were transfected with recombinant pCR3.1 clones containing GPCR-like receptor DNAs, using LipofectAMINE PLUS™, essentially according to the manufacturer's instructions. […] In separate plastic tubes, PLUS (20 μl/plate; Life Technologies) was added to 0.75 ml/plate of recombinant plasmid DNA in OptiMEM (5 μg/plate; Gibco/BRL—Life Technologies), mixed and incubated at room temperature for 15 minutes. Separately, LipofectAMINE (30 μl/plate) was mixed with 0.75 ml OptiMEM and added to the pre-complexed DNA/PLUS mixture and incubated at room temperature for 15 minutes. The culture medium was then replaced with serum-free transfection medium (DMEM, 5 ml/plate). The DNA-PLUS-LipofectAMINE complex was then added to the plates (1.5 ml/plate) and mixed gently into the medium, followed by a 3 hour incubation at 37° C. in 5% CO2. At this time, the medium was supplemented with complete DMEM medium containing 20% FBS (6.5 ml/plate) and incubation was continued at 37° C. in 5% CO2. After a total of 24 hours at 37° C. in 5% CO2, the medium was replaced with complete DMEM medium fortified with 10 mM HEPES (10 ml/plate) and the cells were moved to an incubator maintained at 28-30° C. in a humidified atmosphere of 5% CO2 in air. The incubation continued for an additional 24 hours, typically at the lower temperature indicated above. A plasmid encoding Green Fluorescent Protein (i.e., GFP, 4 μg/plate) was used for transient GFP expression in CHO-K1 cells to estimate the transfection yields under the same conditions as used for GPCR-like receptor polynucleotides.
(§2) To assess expression, membranes were prepared from transfected CHO-K1 cells. Transfected cells were washed once with ice-cold Dulbecco's phosphate-buffered saline (i.e., PBS), 5 ml per 10 cm plate, and the cells were scraped into 5 ml of the same buffer. Cell suspensions from multiple plates were combined and centrifuged at 500×g for 10 minutes at 4° C. The cell pellet was reconstituted in ice-cold TEE (25 mM Tris, pH 7.4, 5 mM EGTA, 5 mM EDTA). Convenient aliquots were snap-frozen in liquid nitrogen and stored at −70° C. After thawing, the cells were homogenized and centrifuged at 500×g for 5 minutes at 4° C. to pellet nuclei and unbroken cells. Tile supernatant was centrifuged at 47,000×g for 30 minutes at 4° C. The membrane pellet was washed once with TEE, resuspended in 20 mM HEPES, pH 7.4, 100 mM NaCl, 10 mM MgCl2, 1 mM EDTA (assay buffer), distributed into aliquots of 0.5-1.0 ml, and frozen in liquid nitrogen. Membrane aliquots were stored at −70° C. Membrane protein concentration was determined using the BCA Protein Assay Reagent from Pierce (Rockford, Ill.), with bovine serum albumin (i.e., BSA) as a standard.
(§3) Aliquots of cell membranes prepared as described above and stored at −70° C. were thawed, homogenized, and diluted into buffer containing 20 mM HEPES, pH 7.4, 10 mM MgCl2, 1 mM EDTA, and 100 mM NaCl at a concentration of 10-50 μg/ml. Reaction mixtures were prepared in 96-well polypropylene plate, Nunc. Twenty microliters of a 10× putative modulator compound (including but not limited to potential peptide ligands) solution or a water control (20 μl), 18.2 µM GDP (0.11 ml, 10 μM final concentration), and a membrane preparation were mixed and placed on ice. The modulator/ligand-GDP-membrane mixtures were incubated for 20 minutes at room temperature on a shaking platform and then placed on ice.

CEGPCR12h receptor = target: T2, CEGPCR12h receptor (Caenorhabditis elegans, UniProt Q20275); experiment: [35S]GTPγS binding assay, CEGPCR12h expressed in CHO cells; conditions: for activity at single concentration: peptides tested at 5 μM
T2 sequence (Q20275 1-402): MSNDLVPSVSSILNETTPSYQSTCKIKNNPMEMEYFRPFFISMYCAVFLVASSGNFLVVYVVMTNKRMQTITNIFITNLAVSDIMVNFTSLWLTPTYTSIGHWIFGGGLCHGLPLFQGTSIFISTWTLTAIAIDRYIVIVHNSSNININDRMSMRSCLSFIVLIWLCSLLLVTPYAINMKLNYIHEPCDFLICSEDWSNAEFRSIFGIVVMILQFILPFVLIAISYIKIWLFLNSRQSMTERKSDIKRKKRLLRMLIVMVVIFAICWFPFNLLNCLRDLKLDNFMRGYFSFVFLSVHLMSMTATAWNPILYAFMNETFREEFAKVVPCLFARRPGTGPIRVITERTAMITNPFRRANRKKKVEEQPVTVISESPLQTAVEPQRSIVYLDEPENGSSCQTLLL
Protocol: as §1, §2, §3

CEGPCR16 receptor = target: T3, CEGPCR16 receptor (Caenorhabditis elegans, UniProt Q9XXU4); experiment: [35S]GTPγS binding assay, CEGPCR16 expressed in CHO cells
T3 sequence (Q9XXU4 1-365): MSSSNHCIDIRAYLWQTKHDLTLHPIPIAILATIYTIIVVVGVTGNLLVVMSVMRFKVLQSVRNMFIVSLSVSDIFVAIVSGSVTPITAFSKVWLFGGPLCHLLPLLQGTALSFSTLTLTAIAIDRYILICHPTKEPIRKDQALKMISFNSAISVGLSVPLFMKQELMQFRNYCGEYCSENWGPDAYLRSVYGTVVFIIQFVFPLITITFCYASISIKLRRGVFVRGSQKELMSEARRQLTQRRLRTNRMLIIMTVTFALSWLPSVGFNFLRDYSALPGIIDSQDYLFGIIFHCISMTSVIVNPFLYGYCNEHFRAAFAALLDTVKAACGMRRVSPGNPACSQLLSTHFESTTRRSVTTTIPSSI
Protocol: as §1, §2, §3

[1] = EC50 range, Table 11, one range for the group, results apply to all CEGPCR12 isoforms
[2] = EC50 range, Table 9, one range for the group of peptides
[3] = Table 10, one range for the group of peptides, read-out: EC50 range

Question: For AGPRFIRF-NH2 [AGPRFIRF-NH2], which EC50 (CEGPCR5) is on record?
Answer: 1000 to 8000 nM

Question: With `CC(C)C[C@H](NC(=O)[C@H](Cc1ccccc1)NC(=O)[C@@H](NC(=O)[C@H](Cc1c[nH]cn1)NC(=O)[C@H](CC(=O)O)NC(=O)[C@@H](NC(=O)[C@H](CC(=O)O)NC(=O)[C@@H]1CCC(=O)N1)C(C)C)C(C)C)C(=O)N[C@@H](CCCNC(=N)N)C(=O)N[C@@H](Cc1ccccc1)C(N)=O` [pQDVDHVFLRF-NH2] ([pGlu]DVDHVFLRF-NH2) as the molecule, how does the EC50 (CEGPCR12h receptor; [1]) read?
Answer: 1500 to 3000 nM

Question: ARGPQLRLRF-NH2 [ARGPQLRLRF-NH2] was tested. Which EC50 (CEGPCR5; [2]) did it give?
Answer: 1000 to 8000 nM

Question: For AGAKFIRF-NH2 [AGAKFIRF-NH2], which EC50 (CEGPCR5) is on record?
Answer: 1000 to 8000 nM

Question: Which EC50 (CEGPCR16 receptor; [3]) does the source give for EAEEPLGTMRF-NH2 [EAEEPLGTMRF-NH2] here?
Answer: 60 to 300 nM

Question: For SDRNFLRF-NH2 [SDRNFLRF-NH2], which EC50 (CEGPCR5; [2]) is on record?
Answer: 80 to 800 nM

Question: With SADDSAPFGTMRF-NH2 [SADDSAPFGTMRF-NH2] as the molecule, how does the EC50 (CEGPCR16 receptor; [3]) read?
Answer: 60 to 300 nM

Question: How did the EC50 (CEGPCR16 receptor; [3]) turn out when GDVPGVLRF-NH2 [GDVPGVLRF-NH2] was run?
Answer: 700 to 4600 nM

Question: And the “activity at single concentration” value (CEGPCR12h receptor; Table 11)?
Answer: active at

Question: Which EC50 (CEGPCR16 receptor; [3]) does the source give for AVPGVLRF-NH2 [AVPGVLRF-NH2] here?
Answer: 700 to 4600 nM

Question: What about the “activity at single concentration” value (CEGPCR12h receptor; Table 11) of the same molecule?
Answer: active at

Question: What does the source list for KSVPGVLRF-NH2 [KSVPGVLRF-NH2]?
Answer: EC50 (CEGPCR5): 1000 to 8000 nM; EC50 (CEGPCR16 receptor; [3]): 700 to 4600 nM; activity at single concentration (CEGPCR12h receptor; Table 11): active at

Question: For `CC(C)C[C@H](NC(=O)[C@H](Cc1ccccc1)NC(=O)[C@@H](NC(=O)[C@H](Cc1c[nH]cn1)NC(=O)[C@H](CC(=O)O)NC(=O)[C@@H](NC(=O)[C@H](CC(=O)O)NC(=O)[C@@H]1CCCN1C(=O)[C@@H](N)Cc1ccc(O)c(I)c1)C(C)C)C(C)C)C(=O)N[C@@H](CCCNC(=N)N)C(=O)N[C@@H](Cc1ccccc1)C(N)=O` [[I]Y^0PDVDHVFLRF-NH2] (H-[Tyr(3-I)]PDVDHVFLRF-NH2), which EC50 (CEGPCR12h receptor; EC50) is on record?
Answer: 478 nM

Question: And the EC50 (CEGPCR12h receptor; [1])?
Answer: 300 to 500 nM

Question: KPNFLRY-NH2 [KPNFLRY-NH2] was tested. Which EC50 (CEGPCR5; [2]) did it give?
Answer: 1000 to 8000 nM

Question: How did the EC50 (CEGPCR16 receptor; [3]) turn out when SPLGTMRF-NH2 [SPLGTMRF-NH2] was run?
Answer: 60 to 300 nM

Question: Which EC50 (CEGPCR5; [2]) does the source give for YGLGPRPLRF-NH2 [YGLGPRPLRF-NH2] here?
Answer: 80 to 800 nM

Question: How did the EC50 (CEGPCR5) turn out when GMPGVLRF-NH2 [GMPGVLRF-NH2] was run?
Answer: 1000 to 8000 nM

Question: What about the EC50 (CEGPCR16 receptor; [3]) of the same molecule?
Answer: 60 to 300 nM

Question: And the “activity at single concentration” value (CEGPCR12h receptor; Table 11)?
Answer: active at

Question: With EIPGVLRF-NH2 [EIPGVLRF-NH2] as the molecule, how does the EC50 (CEGPCR16 receptor; [3]) read?
Answer: 700 to 4600 nM

Question: For SAEPFGTMRF-NH2 [SAEPFGTMRF-NH2], which EC50 (CEGPCR16 receptor; [3]) is on record?
Answer: 60 to 300 nM

Question: With SVPGVLRF-NH2 [SVPGVLRF-NH2] as the molecule, how does the EC50 (CEGPCR5) read?
Answer: 80 to 800 nM

Question: And the EC50 (CEGPCR16 receptor; [3])?
Answer: 60 to 300 nM

Question: What about the EC50 (CEGPCR16 receptor; read-out: EC50) of the same molecule?
Answer: 64 nM

Question: What about the “activity at single concentration” value (CEGPCR12h receptor; Table 11) of the same molecule?
Answer: active at
